Data reported in patent US7528170B2, “Sulfonamide derivatives for the treatment of diseases” (Pfizer Inc., priority 2004, dated 2009).

These compounds were tested against T1, human β2 adrenergic receptor (Homo sapiens, UniProt P07550) (assay: β2 cAMP agonist potency assay in CHOhβ2 cells (cAMP-Flashplate)). Conditions: CHO cells recombinantly expressing the human β2 adrenergic receptor; compounds incubated with cells for 1 hour; data as % Isoprenaline activity, four parameter sigmoid fit.
T1 construct: expressed in transfected cells; host or cells: CHO (Chinese Hamster Ovary) cells, CHOhβ2
T1 sequence (P07550 whole entry): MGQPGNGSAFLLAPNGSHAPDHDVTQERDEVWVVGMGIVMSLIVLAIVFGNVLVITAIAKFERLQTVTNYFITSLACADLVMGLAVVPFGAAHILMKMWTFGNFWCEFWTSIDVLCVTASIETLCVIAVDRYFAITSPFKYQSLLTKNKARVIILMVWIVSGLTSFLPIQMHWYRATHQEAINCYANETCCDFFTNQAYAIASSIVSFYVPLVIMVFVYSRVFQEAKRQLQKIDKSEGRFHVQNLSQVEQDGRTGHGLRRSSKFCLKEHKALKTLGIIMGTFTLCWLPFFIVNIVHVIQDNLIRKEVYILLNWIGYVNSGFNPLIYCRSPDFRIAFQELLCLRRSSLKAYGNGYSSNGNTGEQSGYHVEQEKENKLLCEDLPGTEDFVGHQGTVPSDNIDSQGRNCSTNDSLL
Format: cell-based
Method: According to another alternative, the agonist potency for the β2 receptor of the compounds of the formula (1) may also be determined by the measure of the concentration of compound according to the present invention required to produce half maximal effect (EC50) for the β2 receptor.
10 mM/100% DMSO (dimethylsulfoxide) stock of compound is diluted to required top dose in 4% DMSO. This top dose is used to construct a 10-point semi-log dilution curve, all in 4% DMSO. Isoprenaline (Sigma, 1-5627) was used as a standard in every experiment and for control wells on each plate. Data was expressed as % Isoprenaline response.
CHO (Chinese Hamster Ovary) cells recombinantly expressing the human β2 adrenergic receptor (from Kobilka et al., PNAS 84: 46-50, 1987 and Bouvier et al., Mol Pharmacol 33: 133-139 1988 CHOhβ2) were grown in Dulbeccos MEM/NUT MIX F12 (Gibco, 21331-020) supplemented with 10% foetal bovine serum (Sigma, F4135, Lot 90K8404 Exp 09/04), 2 mM glutamine (Sigma, G7513), 500 μg/ml geneticin (Sigma, G7034) and 10 μg/ml puromycin (Sigma, P8833). Cells were seeded to give about 90% confluency for testing.
25 μl/well each dose of compound was transferred into a cAMP-Flashplate® (NEN, SMP004B), with 1% DMSO as basal controls and 100 nM Isoprenaline as max controls. This was diluted 1:2 by the addition of 25 μl/well PBS. Cells were trypsinised (0.25% Sigma, T4049), washed with PBS (Gibco, 14040-174) and resuspended in stimulation buffer (NEN, SMP004B) to give 1×10^6 cells/ml CHOhB2. Compounds were incubated with 50 μl/well cells for 1 hour. Cells were then lysed by the addition of 100 μl/well detection buffer (NEN, SMP004B) containing 0.18 μCi/ml ^125I-cAMP (NEN, NEX-130) and plates were incubated at room temperature for a further 2 hours. The amount of ^125I-cAMP bound to the Flashplate® was quantified using a Topcount NXT (Packard), normal counting efficiency for 1 minute. Dose-response data was expressed as % Isoprenaline activity and fitted using a four parameter sigmoid fit. […] The following table illustrate the activity of the compounds of the invention: […]
For `COc1cc(CNC(=O)Cc2cccc(CC(C)(C)NC[C@H](O)c3ccc(O)c(NS(C)(=O)=O)c3)c2)ccc1O` [Example 1, 2-(3-{2-[((2R)-2-Hydroxy-2-{4-hydroxy-3-[(methylsulfonyl)amino]phenyl}ethyl)amino]-2-methylpropyl}phenyl)-N-(4-hydroxy-3-methoxybenzyl)acetamide], the EC50 was 0.03 nM. Compound `CC(C)(Cc1cccc(CC(=O)NCc2ccc(-c3ccc(O)cc3)cc2)c1)NC[C@H](O)c1ccc(O)c(NS(C)(=O)=O)c1` [Example 2, N-[(4′-Hydroxybiphenyl-4-yl)methyl]-2-(3-{2-[((2R)-2-hydroxy-2-{4-hydroxy-3-[(methylsulfonyl)amino]phenyl}ethyl)amino]-2-methylpropyl}phenyl)acetamide] has an EC50 of 0.24 nM. With `CC(C)(Cc1cccc(CC(=O)NCc2ccc3cc(O)ccc3c2)c1)NC[C@H](O)c1ccc(O)c(NS(C)(=O)=O)c1` [Example 6] the EC50 was 0.16 nM. `CC(C)(Cc1cccc(CC(=O)NCc2cccc(-c3ccc(O)cc3)c2)c1)NC[C@H](O)c1ccc(O)c(NS(C)(=O)=O)c1` [Example 7, N-[(4′-Hydroxybiphenyl-3-yl)methyl]-2-(3-{2-[((2R)-2-hydroxy-2-{4-hydroxy-3-[(methylsulfonyl)amino]phenyl}ethyl)amino]-2-methylpropyl}phenyl)acetamide] was tested, and the EC50 was 0.26 nM. `CC(C)(Cc1cccc(CC(=O)NCC(C)(C)c2ccc(O)cc2)c1)NC[C@H](O)c1ccc(O)c(NS(C)(=O)=O)c1` [Example 9, 2-(3-{2-[((2R)-2-Hydroxy-2-(4-hydroxy-3-[(methylsulfonyl)amino]phenyl)ethyl)amino]-2-methylpropyl}phenyl)-N-[2-(4-hydroxyphenyl)-2-methylpropyl]acetamide] showed an EC50 of 0.45 nM. With `CC(C)(Cc1cccc(CC(=O)N2CCc3cc(O)ccc3C2)c1)NC[C@H](O)c1ccc(O)c(NS(C)(=O)=O)c1` [Example 13, N-(2-Hydroxy-5-{(1R)-1-hydroxy-2-[(2-{3-[2-(6-hydroxy-3,4-dihydroisoquinolin-2(1H)-yl)-2-oxoethyl]phenyl}-1,1-dimethylethyl)amino]ethyl}phenyl)methanesulfonamide] the EC50 was 0.08 nM. In the case of `CC(C)(Cc1cccc(CC(=O)NCCc2ccc(O)cc2)c1)NC[C@H](O)c1ccc(O)c(NS(C)(=O)=O)c1` [Example 15, 2-(3-{2-[((2R)-2-Hydroxy-2-{4-hydroxy-3-[(methylsulfonyl)amino]phenyl}ethyl)amino]-2-methylpropyl}phenyl)-N-[2-(4-hydroxyphenyl)ethyl]acetamide], the EC50 is reported as 0.09 nM. `CC(C)(Cc1cccc(CC(=O)NCc2cc(O)cc(C(F)(F)F)c2)c1)NC[C@H](O)c1ccc(O)c(NS(C)(=O)=O)c1` [Example 20, 2-(3-{2-[((2R)-2-Hydroxy-2-{4-hydroxy-3-[(methylsulfonyl)amino]phenyl}ethyl)amino]-2-methylpropyl}phenyl)-N-[3-hydroxy-5-(trifluoromethyl)benzyl]acetamide] showed an EC50 of 0.29 nM.
